{
  "source": "patent US20240374769A1",
  "about": "“LIGHT ACTIVATED CLEANING COMPOSITION” (The Procter & Gamble Company, priority 2023, published 2024)",
  "key": {"[1]": {"experiment": "Riboflavin 5-phosphate sodium salt degradation under 450 nm LED with or without sodium ascorbate", "type": "physicochemical", "procedure": "Stock solutions of Riboflavin5-phosphate sodium salt were created by adding 2.2 mg of granulated Riboflavin 5-phosphate sodium salt Riboflavin 5-phosphate sodium salt into a 10 mL volumetric flask with a 95% H2O: 5% ethanol to give a concentration of 0.46 mM. Adding 1 mL of the stock solution to another 10 mL was used to create a 46 μM solution. Adding 0.5 mL to a 25 mL volumetric flask gives a concentration of 9 μM.\nStock solutions of sodium ascorbate were created by adding 9.1 mg of granulated sodium ascorbate into a 10 mL volumetric flask with a 95% H2O: 5% ethanol to give a concentration of 4.6 mM. Adding 0.1 mL of the stock solution to another 10 mL was used to create a 46 μM solution. Adding 0.05 mL to a 25 mL volumetric flask gives a concentration of −9 μM, which could be multiplied to give the number of equivalents needed for each study.\nFor some riboflavin decomposition experiments a home-built 450 nm LED was used to irradiate samples. The quartz cuvette was placed 11.5 cm away from the light source and the measured intensity was 1750 mW/m^2.\nA JASCO V-750 spectrophotometer (from JASCO Easton, Maryland, USA) was used for recording UV-Vis spectra. Quartz cuvettes were used for sample irradiations as they have an optical window that allows for spectra to be collected as low as 200 nm. IgorPro8 software was used for plotting and processing the data.\nFractional RF Absorbance is the absorbance signal at 446 nm measured at an irradiation time divided by the absorbance signal at 446 nm at t=0. The concentration of RF was held constant at 46 μM, denoted by “1” and the concentration of sodium ascorbate (SA) was varied in multiples of 46 μM, denoted by “1”, “5”, “10”, “50” (i.e. 46 μM, 230 μM, 460 μM, and 2.3 mM).\nTo test the depletion of Riboflavin 5-phosphate sodium salt (RF) in presence of sodium ascorbate, experiments were run in triplicate using a 450 nm LED with a measured power of 1750 mW/m2. […]"}, "[2]": {"experiment": "Thioxanthone depletion in solution under 365 nm irradiation (UV-Vis)", "type": "physicochemical", "procedure": "Solutions of photosensitizer (9-10 μM, 1 eq), […] (9-50 μM, 1-5 eq) and singlet oxygen quenching molecules (1-1000 equivalents) were prepared in a 10 mL volumetric flask either. Solvents for these studies were either 95:5 DI H2O:Ethanol or pure ethanol. A starting UV-Vis spectrum was obtained as a baseline. Solutions were irradiated in a quartz cuvette using appropriate LED's at a measured distance to ensure reproducible results. Spectra were collected at intervals of 1 min, 5 min, 15 minutes, 30 minutes, and every 15 minutes until the […] was depleted. In cases where nitrosoaniline absorption signals were quenched faster, the spectra were collected as smaller intervals typically been 1-5 minutes.\nStock solutions of thioxanthone were created by adding […] of granulated thioxanthone into a 10 mL volumetric flask with pure ethanol to give a concentration of 2.3 mM. Adding 0.1 mL of the stock solution to another 10 mL was used to create a 23 μM solution. Adding 0.1 mL to a 25 mL volumetric flask gives a concentration of −9 μM.\nStock solutions of imidazole were created by adding […] of granulated imidazole into a 10 mL volumetric flask with a 95% H2O: 5% ethanol or pure ethanol to give a concentration of […]. […]\nSome thioxanthone decomposition experiments were performed by using a home-built 365 nm LED. […] The light intensity was measured to be roughly 2000 mW/m^2 from each LED. […]"}, "[3]": {"details": "in methanol solutions; cited from earlier work"}},
  "data": [
    {"compound": "Cc1cc2nc3c(=O)[nH]c(=O)nc-3n(C[C@H](O)[C@H](O)[C@H](O)COP(=O)([O-])O)c2cc1C.[Na+]", "note": "[Riboflavin 5-phosphate sodium salt]", "values": [
      {"measurement": "loss of absorbance signal at 446 nm", "setting": "[1]; RF 46 μM by itself, 450 nm LED 1750 mW/m2, after 30 minutes of irradiation", "value": "roughly 50%"},
      {"measurement": "loss of absorbance signal at 446 nm", "setting": "[1]; RF 46 μM with 5× sodium ascorbate (230 μM), 450 nm LED, in about 10 minutes", "value": "roughly 50%"},
      {"measurement": "loss of absorbance signal at 446 nm", "setting": "[1]; RF 46 μM with 10× sodium ascorbate (460 μM), 450 nm LED, in about 10 minutes", "value": "roughly 50%"}
    ]},
    {"compound": "c1c[nH]cn1", "note": "[imidazole]", "values": [
      {"measurement": "effect of added imidazole on rate of thioxanthone degradation", "setting": "[2]; thioxanthone 23 μM, imidazole 23 μM to 230 μM, 365 nm", "value": "increases the rate of thioxanthone degradation"}
    ]},
    {"compound": "O=c1c2ccccc2sc2ccccc12", "note": "[thioxanthone, reference compound]", "values": [
      {"measurement": "depletion of thioxanthone", "setting": "[2]; thioxanthone 23 μM in ethanol, 365 nm irradiation", "value": "complete after two hours of irradiation"},
      {"measurement": "triplet quantum yield", "setting": "[3]", "value": 0.56}
    ]}
  ]
}
